In patent publication US20230025880A1, “FUSED TRICYCLIC COMPOUND AND MEDICINAL USE THEREOF” (JAPAN TOBACCO INC., priority 2020, published 2023) one finds IC50 data, which are given here for 26 compounds.

In general, IC50 refers to the concentration needed to halve the response being measured.

The target in this test is T1, human PDHK2 (hPDHK2) (Homo sapiens, UniProt Q15119).
T1 construct: made in house; host or cells: Escherichia coli BL21(DE3), pET-17b vector
The experiment in a line: Inhibitory action of PDHK2 activity (residual PDH activity, NADH absorbance at 340 nm). It is filed as biochemical. The conditions noted are these: PDH/hPDHK2 complex, PDHK reaction 45 min at room temperature. On the procedure:
In the case of human PDHK2 (hPDHK2, NCBI Reference Database Accession number NM_002611.4), modified hPDHK2 cDNA wherein FLAG-Tag sequence was added to the N terminus of hPDHK2 cDNA clone (pReceiver-M01/PDK2-GeneCopoeia) as the base was prepared by polymerase chain reaction (PCR) and ligated to the NdeI/EcoRI site of pET-17b vector (Merck KGaA, Catalog Number 69663-3). The recombinant construct was transformed into Escherichia coli DH5α. The recombinant clones were identified, and plasmid DNA was isolated and subjected to the DNA sequence analysis. One clone which had the expected nucleic acid sequence was selected for expression work.
For expression of hPDHK2 activity, Escherichia coli strain BL21(DE3) cells (Merck KGaA, Catalog Number 69450-4) were transformed with the pET17b vector containing modified hPDHK2 cDNA. The Escherichia coli were grown to an optical density 0.6 ([…]) at 30° C. Protein expression was induced by the addition of 500 μmol/L isopropyl-β-thiogalactopyranoside. The Escherichia coli were cultured at 20° C. for 17-18 hr and harvested by centrifugation. The harvested Escherichia coli was resuspended in a suspension buffer (20 mmol/L HEPES-NaOH, 500 mmol/L sodium chloride, 1% ethylene glycol, 0.1% Pluronic (registered trademark) F-68 (pH 8.0), cOmplete, EDTA-free (Roche) (pH 8.0)), and disrupted by a microfluidizer M-110H (MIZUHO INDUSTRIAL CO., LTD.). The precipitate was removed by centrifugation and the supernatant was added to DDDDK-tagged Protein PURIFICATION GEL (MEDICAL & BIOLOGICAL LABORATORIES CO., LTD., Code No. 3329). DDDDK-tagged Protein PURIFICATION GEL was washed with a washing buffer (20 mmol/L HEPES-NaOH, 500 mmol/L sodium chloride, 1% ethylene glycol, 0.1% Pluronic F-68 (pH 8.0)) and the bound protein was eluted with elution buffer 1 (20 mmol/L HEPES-NaOH, 100 μg/mL peptide (amino acid sequence DYKDDDDK) (SEQ ID NO: 1), 500 mmol/L sodium chloride, 1% ethylene glycol, 0.1% Pluronic F-68 (pH 8.0)). The eluted fractions containing FLAG-Tagged protein were pooled, concentrated by an ultrafiltration method, added to a gel filtration column (HiLoad 26/60 Superdex 200 (GE Healthcare Life Sciences, Code No. 17-1070-01)), and eluted with elution buffer 2 (20 mmol/L HEPES-NaOH, 150 mmol/L sodium chloride, 0.5 mmol/L ethylenediaminetetraacetic acid (EDTA), 1% ethylene glycol, 0.1% Pluronic F-68 (pH 8.0)). The eluted fractions were pooled and preserved at −80° C.
PDH (porcine heart PDH complex, Sigma P7032) and 0.5 μg/mL hPDHK2 were mixed in an assay buffer (50 mmol/L 3-morpholinopropanesulfonic acid (pH 7.0), 20 mmol/L dipotassium hydrogen phosphate, 60 mmol/L potassium chloride, 2 mmol/L magnesium chloride, 0.4 mmol/L EDTA, 0.2% poloxamer, 2 mmol/L dithiothreitol) so that the final concentration of PDH was 0.025 U/mL, and the mixture was incubated at 4° C. overnight to obtain a PDH/hPDHK2 complex solution.
PDH was mixed with the assay buffer so that the final concentration was 0.025 U/mL, and the mixture was incubated at 4° C. overnight to prepare a PDH solution.
The test compounds were diluted with DMSO. To measure an inhibitory action of the test compound on the PDHK activity in the PDH/hPDHK2 complex solution, PDH/hPDHK2 complex solution (20 μL), test compound (1.5 μL) and 1.06 μmol/L ATP (diluted with assay buffer) (8.5 μL) were added to a 384 well microplate (Greiner Bio-One 781801) and PDHK reaction was performed at room temperature for 45 min (test compound well). DMSO (1.5 μL) was added to control wells instead of test compound. In addition, DMSO (1.5 μL) was added to blank wells instead of the test compound, and PDH solution was added instead of the PDH/hPDHK2 complex solution. To measure an inhibitory action of the test compound on the PDHK activity inherent in the PDH solution, a test compound was added and the PDH solution instead of the PDH/hPDHK2 complex solution was added to a blank+test compound well. […]

In turn, `C[C@H]1Cn2c(nnc2C(C)(C)C(F)(F)F)-c2cnc([C@@](C)(O)C(F)(F)F)n21` [Example 39] yielded an IC50 of 8.1 nM.
The value for `C[C@H]1Cn2c(nnc2C2(C(F)(F)F)CC2)-c2cnc([C@@](C)(O)C(F)(F)F)n21` [Example 40] was 11 nM.
On to `C[C@H]1Cn2nc(C(=O)O)cc2-c2cnc([C@@](C)(O)C(F)(F)F)n21` [Example 41], for which 21 nM corresponded to half-maximal inhibition (IC50).
Then `C[C@H]1Cn2nc(C#N)cc2-c2cnc([C@@](C)(O)C(F)(F)F)n21` [Example 42], with 24 nM.
The value for `C[C@H]1Cn2ncc(F)c2-c2cnc([C@@](C)(O)C(F)(F)F)n21` [Example 44] was 17 nM.
In turn, `C[C@H]1Cn2nc(OCC(F)F)cc2-c2cnc([C@@](C)(O)C(F)(F)F)n21` [Example 46] gave an IC50 of 13 nM.
Then `C[C@H]1Cn2nc(Oc3ccc(C#N)cn3)cc2-c2cnc([C@@](C)(O)C(F)(F)F)n21` [Example 47], with 20 nM.
Then `C[C@H]1Cn2nc(OCF)cc2-c2cnc([C@@](C)(O)C(F)(F)F)n21` [Example 48], with 14 nM.
The value for `C[C@H]1Cn2nc(OCc3ccc(C#N)cc3)cc2-c2cnc([C@@](C)(O)C(F)(F)F)n21` [Example 49] was 8.8 nM; that for `C[C@H]1Cn2nc(OCC3(C#N)CC3)cc2-c2cnc([C@@](C)(O)C(F)(F)F)n21` [Example 51] was 17 nM; that for `C[C@H]1Cn2nc(OCC(C)(C)O)cc2-c2cnc([C@@](C)(O)C(F)(F)F)n21` [Example 52, (R)-1,1,1-trifluoro-2-((S)-9-(2-hydroxy-2-methylpropoxy)-5-methyl-5,6-dihydroimidazo[1,5-a]pyrazolo[5,1-c]pyrazin-3-yl)propan-2-ol] was 21 nM.
For the compound `C[C@H]1Cn2nc(OCC(=O)N3CC(F)(F)C3)cc2-c2cnc([C@@](C)(O)C(F)(F)F)n21` [Example 53], the IC50 stood at 13 nM.
Turning to `C[C@H]1Cn2c(-c3ccc(C(F)(F)F)cc3)nnc2-c2cnc([C@@](C)(O)C(F)(F)F)n21` [Example 54], the IC50 was found to be 9.3 nM.
The value for `C[C@H]1Cn2nc(OC(C)(C)C)cc2-c2cnc([C@@](C)(O)C(F)(F)F)n21` [Example 55] was 16 nM.
Then `C[C@H]1Cn2c(-c3ccc(F)cc3C(F)(F)F)nnc2-c2cnc([C@@](C)(O)C(F)(F)F)n21` [Example 56], with 7 nM; and `C[C@H]1Cn2nc(OCC3(CC#N)CC3)cc2-c2cnc([C@@](C)(O)C(F)(F)F)n21` [Example 57], with 22 nM; and `C[C@H]1Cn2nc(OC3CN(C(=O)c4ccc(F)cc4)C3)cc2-c2cnc([C@@](C)(O)C(F)(F)F)n21` [Example 58], with 8.8 nM.
Then `CCC(F)(F)c1nnc2n1C[C@H](C)n1c-2cnc1[C@@](C)(O)C(F)(F)F` [Example 59], with 10 nM; and `CC(C)C(F)(F)c1nnc2n1C[C@H](C)n1c-2cnc1[C@@](C)(O)C(F)(F)F` [Example 60], with 6.8 nM.
On to `C[C@H]1Cn2nc(OCCOC(F)(F)F)cc2-c2cnc([C@@](C)(O)C(F)(F)F)n21` [Example 61], for which 14 nM corresponded to half-maximal inhibition (IC50).
The value for `C[C@H]1Cn2c(nnc2C(F)(F)Oc2ccc(F)cc2)-c2cnc([C@@](C)(O)C(F)(F)F)n21` [Example 62] was 6.3 nM; that for `C[C@H]1Cn2nc(OCCN3CCCC3=O)cc2-c2cnc([C@@](C)(O)C(F)(F)F)n21` [Example 63] was 14 nM.
Then `CC(=O)N1CC(COc2cc3n(n2)C[C@H](C)n2c-3cnc2[C@@](C)(O)C(F)(F)F)C1` [Example 64], with 19 nM; and `C[C@H]1Cn2nc(OCC3CN(S(C)(=O)=O)C3)cc2-c2cnc([C@@](C)(O)C(F)(F)F)n21` [Example 65], with 13 nM.
In turn, `C[C@H]1Cn2nc(OCC3CN(C(=O)c4ccc(F)cc4)C3)cc2-c2cnc([C@@](C)(O)C(F)(F)F)n21` [Example 66] showed an IC50 of 18 nM.
With `CC(=O)N1CCC(COc2cc3n(n2)C[C@H](C)n2c-3cnc2[C@@](C)(O)C(F)(F)F)CC1` [Example 67], half-maximal inhibition (IC50) was put at 19 nM.
